Data on one compound can be found in patent US9987255B2, “5,5-bicyclic oxazole orexin receptor antagonists” (Merck Sharp & Dohme Corp., priority 2014, dated 2018).

The target of assay [1] is human orexin-2 receptor (hOX2R) (Homo sapiens (Human), UniProt O43614). Nature of the assay: FLIPR Ca2+ flux assay, orexin-2 receptor. The assay is classed as cell-based. As to conditions: CHO cells expressing the receptor; agonist 70 pM Ala-6,12 orexin-A. How it is done: The utility of the compounds in accordance with the present invention as orexin receptor OX1R and/or OX2R antagonists may be readily determined without undue experimentation by methodology well known in the art, including the “FLIPR Ca^2+ Flux Assay” (Okumura et al., Biochem. Biophys. Res. Comm. 280:976-981, 2001). In a typical experiment the OX1 and OX2 receptor antagonistic activity of the compounds of the present invention was determined in accordance with the following experimental method. For intracellular calcium measurements, Chinese hamster ovary (CHO) cells expressing the rat orexin-1 receptor or the human orexin-2 receptor, are grown in Iscove's modified DMEM containing 2 mM L-glutamine, […], 1% hypoxanthine-thymidine supplement, 100 U/ml penicillin, 100 μg/ml streptomycin and 10% heat-inactivated fetal calf serum (FCS). The cells are seeded at 20,000 cells/well into Becton-Dickinson black 384-well clear bottom sterile plates coated with poly-D-lysine. All reagents were from GIBCO-Invitrogen Corp. The seeded plates are incubated overnight at 37° C. and 5% CO2. Ala-6,12 human orexin-A as the agonist is prepared as a 1 mM stock solution in 1% bovine serum albumin (BSA) and diluted in assay buffer (HBSS containing 20 mM HEPES, 0.1% BSA and 2.5 mM probenecid, pH7.4) for use in the assay at a final concentration of 70 pM. Test compounds are prepared as 10 mM stock solution in DMSO, then diluted in 384-well plates, first in DMSO, then assay buffer. On the day of the assay, cells are washed 3 times with 100 μl assay buffer and then incubated for 60 min (37° C., 5% CO2) in 60 μl assay buffer containing 1 μM Fluo-4AM ester, 0.02% pluronic acid, and 1% BSA. The dye loading solution is then aspirated and cells are washed 3 times with 100 μl assay buffer. 30 μl of that same buffer is left in each well. Within the Fluorescent Imaging Plate Reader (FLIPR, Molecular Devices), test compounds are added to the plate in a volume of 25 μl, incubated for 5 min and finally 25 μl of agonist is added. Fluorescence is measured for each well at 1 second intervals for 5 minutes and the height of each fluorescence peak is compared to the height of the fluorescence peak induced by 70 pM Ala-6,12 orexin-A with buffer in place of antagonist. For each antagonist, IC50 value (the concentration of compound needed to inhibit 50% of the agonist response) is determined. Alternatively, compound potency can be assessed by a radioligand binding assay (described in Bergman et. al. Bioorg. Med. Chem. Lett. 2008, 18, 1425-1430) in which the inhibition constant (Ki) is determined in membranes prepared from CHO cells expressing either the OX1 or OX2 receptor. The intrinsic orexin receptor antagonist activity of a compound which may be used in the present invention may be determined by these assays.
On the technique in general: Calcium flux is commonly read through the fluorescence of an indicator in the cells.

In assay [2] the target is hOX1R (Homo sapiens, UniProt O43613). Nature of the assay: FLIPR Ca2+ flux assay, orexin-1 receptor. As to conditions: CHO cells expressing the receptor; agonist 70 pM Ala-6,12 orexin-A. The assay is classed as cell-based.

Sequence of human orexin-2 receptor (hOX2R) (O43614 whole entry): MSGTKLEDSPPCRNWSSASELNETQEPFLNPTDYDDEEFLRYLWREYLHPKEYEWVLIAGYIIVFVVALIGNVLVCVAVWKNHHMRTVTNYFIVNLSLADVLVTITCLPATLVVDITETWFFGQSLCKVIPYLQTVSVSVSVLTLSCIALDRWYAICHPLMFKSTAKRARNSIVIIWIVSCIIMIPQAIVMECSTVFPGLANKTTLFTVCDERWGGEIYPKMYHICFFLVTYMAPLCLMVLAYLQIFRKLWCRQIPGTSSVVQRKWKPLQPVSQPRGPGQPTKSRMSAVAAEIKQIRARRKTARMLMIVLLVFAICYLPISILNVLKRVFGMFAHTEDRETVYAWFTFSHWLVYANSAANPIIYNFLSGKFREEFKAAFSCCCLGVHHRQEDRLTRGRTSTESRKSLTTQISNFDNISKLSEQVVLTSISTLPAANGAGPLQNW

As a reminder, the IC50 is the concentration that inhibits the measured activity by half. Higher therefore signals weaker potency in that assay. For `Cc1oc(N2CC3CN(C(=O)c4ccccc4C4CC4(F)F)CC3C2)nc1C(C)(C)O` (centres unmarked) [Example 24, 2-{2-[5-{[2-(2,2-difluorocyclopropyl)phenyl]carbonyl}hexahydropyrrolo[3,4-c]pyrrol-2(1H)-yl]-5-methyl-1,3-oxazol-4-yl}propan-2-ol], the IC50 in assay [1] was 0.022 µM; in assay [2], above 10 µM.
